Results as given in patent publication US4610816A (Schering Corporation, priority 1981, dated 1986).

Key:
enkephalinase A = molecular target: T1, enkephalinase A (Rattus norvegicus, UniProt P07861); test: Enkephalinase A inhibition, radiometric 3H-Met5-ENK degradation assay with TLC separation; assay type: biochemical, Sprague-Dawley rats; settings: rat brain membrane enzyme, 40 nM 3H-Met5-ENK, 90 min at 37° C.; N.A. = No activity at <10^5 nM
T1 construct: from tissue; host or cells: Sprague-Dawley rat brain minus cerebellum; membrane pellet solubilised in 1% Triton X-100, DEAE Sephacel fraction eluting at 120-200 ml
T1 sequence (P07861 1-750): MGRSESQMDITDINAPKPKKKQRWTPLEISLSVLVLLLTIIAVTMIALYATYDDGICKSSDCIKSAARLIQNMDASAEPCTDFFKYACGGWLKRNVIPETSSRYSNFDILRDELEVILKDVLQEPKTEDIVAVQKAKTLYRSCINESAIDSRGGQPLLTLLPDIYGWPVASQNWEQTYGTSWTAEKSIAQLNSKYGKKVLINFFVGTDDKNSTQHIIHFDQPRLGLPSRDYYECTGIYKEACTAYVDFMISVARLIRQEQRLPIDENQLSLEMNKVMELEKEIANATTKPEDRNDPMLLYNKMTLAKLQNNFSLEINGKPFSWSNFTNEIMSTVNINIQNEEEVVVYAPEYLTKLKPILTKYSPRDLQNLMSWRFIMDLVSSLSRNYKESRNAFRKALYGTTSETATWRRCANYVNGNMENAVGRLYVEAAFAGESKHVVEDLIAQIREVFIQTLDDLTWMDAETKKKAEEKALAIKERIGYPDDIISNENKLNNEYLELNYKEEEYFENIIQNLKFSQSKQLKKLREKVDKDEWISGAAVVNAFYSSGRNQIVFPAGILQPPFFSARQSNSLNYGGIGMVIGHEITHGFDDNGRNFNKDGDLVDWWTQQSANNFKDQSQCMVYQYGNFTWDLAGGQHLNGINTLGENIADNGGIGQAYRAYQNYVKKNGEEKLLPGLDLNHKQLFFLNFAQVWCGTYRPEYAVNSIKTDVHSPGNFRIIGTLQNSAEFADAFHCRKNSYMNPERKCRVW
Experimental: The following test procedure was utilized to assay the enkephalinase A inhibition of the compounds having structural formula I.
Enzyme activity was separated by taking the brain tissue (minus cerebellum) from Sprague-Dawley rats and homogenizing it in 30 volumes of 50 mM Tris buffer, pH 7.4, using a Brinkmann Polytron. The resulting homogenate is centrifuged at 50,000 xg for 15 min. The pellet, constituting the membrane bound enzyme material, is washed by resuspending it in Tris and re-centrifuging it 4 times.
Following washing, solubilization of the membrane pellet is achieved by incubating it for 45 min at 37° C. in the presence of 15 volumes (based on initial brain weight) of 50 mM Tris-1% Triton X-100 buffer, pH 7.4. […] Material is eluted from the column using a 1 liter linear NaCl gradient running from 0.0 to 0.4 M. Effluent is collected in 7 ml fractions, each of which is assayed for enkephalin degrading activity. Under these conditions Enk'ase A activity is found to elute between 120 and 200 ml. followed by AP activity (260 to 400 ml) and finally by Enk'ase B activity between 420 and 450 ml.
Enkephalin degrading activity is monitored using a radiometric assay. The substrate is ^3 H-Met^5 -ENK (50.1 Ci/mmol, New England Nuclear) diluted in 0.05 M Tris buffer, pH 7.4, such that the final reaction mixture concentration is 40 nM. Total reaction mixture volume including enzyme and substrate is 250 μl. Incubation is carried out for 90 min at 37° C. To stop the reaction, tubes are transferred to a boiling water bath for 15 min.
Assay products are separated from one another using thin layer chromatography. […] Total running time is approximately 17 hours. TLC tanks are gassed with nitrogen prior to starting the run. Following the run, markers are visualized with ninhydrin spray. These spots, along with remaining plate regions, are cut from the plate and the radioactivity corresponding to each monitored using liquid scintillation counting. IC50 's are determined using linear regression techniques.

Male CFl mice = test: Potentiation of the analgesic effects of (DAla2-Met5)-enkephalinamide (DAEAM), tail-flick test; assay type: in vivo; settings: mouse tail-flick, DAEAM icv, latency 30 min later, dose at which half the test animals displayed analgesia
Source text: Male CFl mice (19-23 g) from Charles River Breeding Labs, Mass., are used (N=10/dose or dose combination). Tail-flick testing is done similar to that of Dewey and Harris, Methods in Narcotic Research, Eds., S. Ehrenpreis and A. Neidle, pp. 101-109, Marcel Dekker, Inc., New York, 1975 using a radiant heat noxious stimulus. Following determination of control latencies (typically 2-3 sec), the mice are first injected (sc or po) with either vehicle or drug and after an appropriate interval injected intracerebroventricularly (icv) with either vehicle (10 μl of saline) or DAEAM according to Haley and McCormick, Br., J. Pharmacol., 12,12 (1957). Tail-flick latencies are re-determined 30 min later, as this has previously been determined to be the time of peak analgesia for DAEAM, a cut-off of 10 sec is employed.

| Structure (SMILES) | IC50 (enkephalinase A) [nM] | DAEAM Potentiation ED50 (route) (Male CFl mice; po) | DAEAM Potentiation ED50 (route) (Male CFl mice; sc) [mg/k] |
| --- | --- | --- | --- |
| CC(C)C[C@H](N[C@H](Cc1ccccc1)C(=O)O)C(=O)N[C@@H](Cc1ccccc1)C(=O)O [AG, N-[N-[(D-1-carboxy-2-phenylethyl)]-L-leucyl]-L-phenylalanine] | 12 | – | – |
| CC(C)(C)OC(=O)N[C@@H](CNC(=O)[C@H](Cc1ccccc1)N[C@@H](Cc1ccccc1)C(=O)O)C(=O)O [AL, N-[N-(L-1-carboxy-2-phenylethyl)-L-phenylalanyl]-S-2-[N[(1,1-dimethylethoxy)carbonyl]amino]-β-alanine] | 4.5 | – | – |
| CC(C)(C)C(=O)OCOC(=O)CCNC(=O)[C@H](Cc1ccccc1)N[C@@H](Cc1ccccc1)C(=O)OCOC(=O)C(C)(C)C [M] | – | 37 mg/k | – |
| O=C(CCNC(=O)[C@H](Cc1ccccc1)N[C@@H](Cc1ccccc1)C(=O)O)OCCOc1ccccc1 [P, N-[N-[(L-1-carboxy-2-phenylethyl)]-L-phenylalanyl]-β-alanine, 2-phenoxyethyl ester] | 230 | 30-60 mg/k | – |
| CC(C)(C)C(=O)OCOC(=O)CCNC(=O)[C@H](Cc1ccccc1)N[C@@H](Cc1ccccc1)C(=O)OCc1ccccc1 [L] | – | 155 mg/k | – |
| O=C(O)CCNC(=O)[C@H](Cc1ccccc1)N[C@@H](Cc1ccc(-c2ccccc2)cc1)C(=O)O [AC, N-[N-[L-1-carboxy-2-(4-phenyl)phenylethyl]-L-phenylalanyl]-β-alanine] | 2.5 | – | – |
| O=C(O)CCNC(=O)[C@H](Cc1ccccc1)N[C@@H](Cc1ccccc1)C(=O)O [K, N-[N-[(L-1-carboxy-2-phenylethyl)]-L-phenylalanyl]-β-alanine] | 15 | – | 17 |
